Data from patent US4997816A, “Induction of fertile ovulation in anoestruns mares” (The University of Melbourne, priority 1985, dated 1991).
“And” between values parts separate entries of the source, which are not always exact repeats. Equal values may be shown once. Read-outs that look alike come from different tables or passages of the source.

What was measured:
Format in all cases: in vivo, mare
[1] = test system: mares in transitional anoestrus; assay: Combined results, transitional anoestrus (1984 and 1985); details: 100 ng/kg/h
Protocol: The experiment commenced on Sept. 10, 1984. Mares were randomised in pairs to a Treated group or a Control group until all the mares had been assigned to groups by Sept. 21. The mares were paired on the basis of each mare having approximately equal ovarian follicular activity. Each treated mare was weighted just prior to the experiment. The dose of GnRH (100 ng/kg/hr) to be administered over 28 days was calculated and dissolved in sterile, physiological (0.9%) saline. The solution was loaded into an OMP and placed in a beaker of saline at room temperature overnight to allow for the "start up time" of the OMP. The mares were divided into 2 groups. One group (n=g) was treated with an infusion of GnRH at a rate of 100 ng/kg/h delivered by subcutaneously implanted OMP for 28 days. The mares were run in paddocks during the experiment and brought into yards every 2 or 3 days, during which time oestrus detection was carried out. […] Blood samples were collected 3 times per week for determination of plasma LH and progesterone concentrations. Ultrasound echography was used to diagnose pregnancy 14 days after ovulation, and every 2 or 3 days thereafter until Day 45 of pregnancy, when the experiment was terminated.

[2] = test system: maiden Standardbred mares in deep winter anoestrus; assay: Example III: 28-day subcutaneous GnRH infusion by osmotic minipump, induction of ovulation (1985); details: for Proportion mares ovulating: deep anoestrus; for Proportion mares ovulating / Percentage mares ovulating: 1985
Description: Delivery of GnRH was achieved via osmotic minipumps (OMP; Alza Corp., Palo Alto, CA:). These pumps are constructed of a rigid, semi-permeable membrane, inside which is suspended a water-proof bag which is filled with the substance to be infused. The neck of the bag is open to the atmosphere. Between the bag and the membrane a special osmotic solution is held. This solution causes an influx of water through the semi-permeable membrane when the OMP is placed in the body of animals. The influx of water collapses the bag at a fixed rate and the substance contained in the bag is expelled from the OMP at a steady rate. […] Sixteen maiden Standardbred mares, 3 to 6 years of age were used in the experiment which was conducted during deep winter anoestrus in 1985. The mares were in good to excellent condition and were run in 2 outside paddocks during the period of the experiment. The mares were divided into 3 groups. Group C (n=5) were untreated and acted as a control group, while Group 50 (n=5) and Group 100 (n=6) received infusions of GnRH at rates of 50 ng/kg/h and 100 ng/kg/h, respectively. The GnRH was delivered via subcutaneously implanted OMP for 28 days, starting on July 2, 1985. Ovarian palpations and oestrus detection was carried out 3 times per week or daily when an ovarian follice of >3 cm diameter was detected.

[3] = test system: Standardbred mares in deep anoestrus; details: for Proportion mares ovulating: deep anoestrus; for Proportion mares ovulating / Percentage mares ovulating: 1984
Description: Delivery of GnRH was achieved via osmotic minipumps (OMP; Alza Corp., Palo Alto, CA:). These pumps are constructed of a rigid, semi-permeable membrane, inside which is suspended a water-proof bag which is filled with the substance to be infused. The neck of the bag is open to the atmosphere. Between the bag and the membrane a special osmotic solution is held. This solution causes an influx of water through the semi-permeable membrane when the OMP is placed in the body of animals. The influx of water collapses the bag at a fixed rate and the substance contained in the bag is expelled from the OMP at a steady rate. […] Fourteen Standardbred mares in deep anoestrus were divided into 3 groups. Group C (controls; n=5) received no treatment while Group 50 (n=5) and Group 100 (n=4) were given infusions of GnRH at rates of 50 ng/kg/h and 100 ng/kg/h respectively. The GnRH was administered via subcutaneously implanted osmotic minipumps (OMP) for 28 days. Blood samples were collected daily and ovarian palpation and oestrus detection was carried out 3 times per week or daily if a follicle >3.5 cm was detected.

[4] = test system: mares in deep anoestrus; assay: Combined results, deep anoestrus (1984 and 1985); details: 1984 and 1985 combined
Protocol: Fourteen Standardbred mares in deep anoestrus were divided into 3 groups. Group C (controls; n=5) received no treatment while Group 50 (n=5) and Group 100 (n=4) were given infusions of GnRH at rates of 50 ng/kg/h and 100 ng/kg/h respectively. The GnRH was administered via subcutaneously implanted osmotic minipumps (OMP) for 28 days. Blood samples were collected daily and ovarian palpation and oestrus detection was carried out 3 times per week or daily if a follicle >3.5 cm was detected. The mares were divided into 3 groups. Group C (n=5) were untreated and acted as a control group, while Group 50 (n=5) and Group 100 (n=6) received infusions of GnRH at rates of 50 ng/kg/h and 100 ng/kg/h, respectively. The GnRH was delivered via subcutaneously implanted OMP for 28 days, starting on July 2, 1985. Ovarian palpations and oestrus detection was carried out 3 times per week or daily when an ovarian follice of >3 cm diameter was detected.

[5] = test system: Standardbred and Standardbred-type mares in transitional anoestrus
Description: Delivery of GnRH was achieved via osmotic minipumps (OMP; Alza Corp., Palo Alto, CA:). These pumps are constructed of a rigid, semi-permeable membrane, inside which is suspended a water-proof bag which is filled with the substance to be infused. The neck of the bag is open to the atmosphere. Between the bag and the membrane a special osmotic solution is held. This solution causes an influx of water through the semi-permeable membrane when the OMP is placed in the body of animals. The influx of water collapses the bag at a fixed rate and the substance contained in the bag is expelled from the OMP at a steady rate. […] Seventeen Standardbred and Standardbred-type mares 3 to 9 years of age were used in the experiment, which commenced on Oct. 2, 1985, when the mares were in transitional anoestrus. The mares were divided into 2 groups. One group (n=g) was treated with an infusion of GnRH at a rate of 100 ng/kg/h delivered by subcutaneously implanted OMP for 28 days. The mares were run in paddocks during the experiment and brought into yards every 2 or 3 days, during which time oestrus detection was carried out. […] Blood samples were collected 3 times per week for determination of plasma LH and progesterone concentrations. Ultrasound echography was used to diagnose pregnancy 14 days after ovulation, and every 2 or 3 days thereafter until Day 45 of pregnancy, when the experiment was terminated.

[6] = test system: Standardbred mares in transitional or "shallow" anoestrus
Description: Delivery of GnRH was achieved via osmotic minipumps (OMP; Alza Corp., Palo Alto, CA:). These pumps are constructed of a rigid, semi-permeable membrane, inside which is suspended a water-proof bag which is filled with the substance to be infused. The neck of the bag is open to the atmosphere. Between the bag and the membrane a special osmotic solution is held. This solution causes an influx of water through the semi-permeable membrane when the OMP is placed in the body of animals. The influx of water collapses the bag at a fixed rate and the substance contained in the bag is expelled from the OMP at a steady rate. […] Ten young Standardbred mares of 3 to 5 years of age as judged by wear of the teeth were used in the experiment. During the experiment, the mares were fed hay twice daily and kept in a paddock. The mares were vaccinated against Tetanus and Strangles and were given regular anthelmintic and lice treatments. Their body condition during the experiment was good to very good. Ovarian palpations were carried out and blood was collected from the mares every 2 or 3 days for 4 weeks prior to commencement of the experiment. […] The experiment commenced on Sept. 10, 1984. Mares were randomised in pairs to a Treated group or a Control group until all the mares had been assigned to groups by Sept. 21. The mares were paired on the basis of each mare having approximately equal ovarian follicular activity. Each treated mare was weighted just prior to the experiment. The dose of GnRH (100 ng/kg/hr) to be administered over 28 days was calculated and dissolved in sterile, physiological (0.9%) saline. The solution was loaded into an OMP and placed in a beaker of saline at room temperature overnight to allow for the "start up time" of the OMP. The OMP were inserted subcutaneously in the side of the necks of the treated mares, under local infiltration anaesthesia. The pumps were retained using 1 or 2 mattress sutures in the skin. After insertion of the OMP, the treated and control mares were run as a group in a single paddock. Every 2 or 3 days the mares were brought into the yards. Ovarian palpations were carried out and blood samples were collected on these days. In addition, the mares were teased with a vigorous stallion, to detect oestrus. […] Blood samples were assayed for lutsinizing hormone (LH) and progesterone concentrations. Ultrasound echography was used to diagnose pregnancy 14 days after ovulation. Subsequent ultrasound examinations were made every 2 or 3 days until Day 45 of pregnancy, when the experiment was terminated.

[7] = Group 50, 50 ng/kg/h s.c. OMP 28 days
[8] = Group 100, 100 ng/kg/h s.c. OMP 28 days

CC(C)C[C@H](NC(=O)CNC(=O)[C@H](Cc1ccc(O)cc1)NC(=O)[C@H](CO)NC(=O)[C@H](Cc1c[nH]c2ccccc12)NC(=O)[C@H](Cc1c[nH]cn1)NC(=O)[C@@H]1CCC(=O)N1)C(=O)N[C@@H](CCCNC(=N)N)C(=O)N1CCC[C@H]1C(=O)NCC(N)=O [GnRH, pGlu-His-Trp-Ser-Tyr-Gly-Leu-Arg-Pro-Gly-NH2]
Day of ovulation (x ± s.e.m.) ([1]; 1984 and 1985 combined, n=14, P < .001 compared to controls): 18.6 ± 3.0
Day of conception (x ± s.e.m.) ([1]; 1984 and 1985 combined, n=14, P < .05 compared to controls): 25.2 ± 6.0
Average day of ovulation earlier than the controls ([1]; data for the 2 years combined): approximately 23 days
Day of conception earlier than the controls ([1]; data for the 2 years combined): 24 days
Average time from OMP insertion to ovulation ([2]; Group 50, 50 ng/kg/h): 24 days
Proportion mares ovulating [2, 7]: 1 of 5 and 1/5
Percentage mares ovulating ([2]; Group 50, 50 ng/kg/h): 20%
Average time from OMP insertion to ovulation ([2]; Group 100, 100 ng/kg/h): 21.8 days
Proportion mares ovulating [2, 8]: 4 of 6 and 4/6
Percentage mares ovulating ([2]; Group 100, 100 ng/kg/h): 67%
Average time from OMP insertion to ovulation ([3]; Group 50, 50 ng/kg/h): 18.5 days
Proportion mares ovulating [3, 7]: 2 of 5 and 2/5
Percentage mares ovulating ([3]; Group 50, 50 ng/kg/h): 40%
Average time from OMP insertion to ovulation ([3]; Group 100, 100 ng/kg/h): 17.3 days
Proportion mares ovulating [3, 8]: 3 of 4 and 3/4
Percentage mares ovulating ([3]; Group 100, 100 ng/kg/h): 75%
Mean LH pulse frequency ([3]; Group 100 compared to controls, Day 21): significantly (<0.05) higher
LH pulse amplitude ([3]; between the 3 groups, any of the days studied): no statistical difference
LH pulse frequency ([3]; between the groups, Day 28): no difference
Mean daily plasma LH concentrations ([3]; both treated groups (50 and 100 ng/kg/h) compared to control mares): higher
LH pulse frequency ([3]; both treated groups compared to controls, within 7 days of insertion of OMP): significantly (p<0.05) higher
Percentage mares ovulating ([4]; Group 50, 50 ng/kg/h): 30%
Proportion mares ovulating ([4]; Group 50, 50 ng/kg/h): 3/10
Percentage mares ovulating ([4]; Group 100, 100 ng/kg/h): 70%
Proportion mares ovulating ([4]; Group 100, 100 ng/kg/h, P < .01 vs controls): 7/10
Treated mares that ovulated during the period the OMP were functional ([5]; 100 ng/kg/h s.c. OMP 28 days, transitional anoestrus, 1985): Eight of 9
Average time (day) of ovulation from commencement of the experiment (x ± s.e.m.) ([5]; 100 ng/kg/h, 1985, n=9, P<0.05 vs controls): 18.6 ± 4.3 days and 18.8 ± 4.3 days
Mares that failed to conceive ([5]; 100 ng/kg/h, 1985, treated group): One
Average day of conception from commencement of the experiment (x ± s.e.m.) ([5]; 100 ng/kg/h, 1985, P<0.05 vs controls, one mare failed to conceive): 24.4 ± 8.1 days
Treated mares that ovulated during GnRH infusion ([6]; 100 ng/kg/hr s.c. OMP 28 days, transitional anoestrus, 1984): Four of the 5
Treated mares that conceived in association with the first ovulation after insertion of the OMP ([6]; 100 ng/kg/hr, 1984): Four of the 5
Day of conception (x ± s.e.m.) ([6]; 100 ng/kg/hr, 1984, n=5, after OMP insertion, p<0.01 vs controls): 26.6 ± 9.7 days and 26.6 days
Time (day) of ovulation from commencement of the experiment (x ± s.e.m.) ([6]; 100 ng/kg/hr, 1984, n=5, p<0.01 vs controls): 18.6 ± 4.1 days and 18.6 days
